Measured values from paper PMC5768343, “A natural inhibitor of kidney-type glutaminase: a withanolide from Physalis pubescens with potent anti-tumor activity” (Oncotarget, 2017).
Where two headings read alike, the source gives them in different places.

Test system: human pancreatic cancer cells (SW1990)
Assay: CCK8 cytotoxicity / proliferation assay, SW1990
Settings: read-out: IC50 SW1990
Procedure: The SW1990, HT1080, and A375-S2 human tumor cell lines were obtained from ATCC (Manassas, VA, USA). […] SW1990, HT1080, and LO2 cells were cultured in DMEM medium with 10% fetal bovine serum (FBS). All of these cells were cultured at 37°C in a humidified atmosphere with 5% CO2. To estimate cell viability, cells (5000/well) were separately seeded in 96-well plates for 24 h at 37°C in a 5% CO2 incubator. […] All the experiments were performed in triplicate, and the mean absorbance values were calculated. The IC50 values of the compounds were derived from the mean OD values of the triplicate tests versus the drug concentration curves.
Cell proliferation was assessed by incubating them with Cell Counting Kit-8 reagents (Dojindo, Shanghai, China) for 24 h, 48 h, 72 h, 96 h at 37°C and measuring the absorbance at 450 nm. The experiment was performed in triplicate.

SMILES | IC50 (CCK8, 48 h) | IC50 (Homo sapiens, SW1990, 48 h)
O=C(Cc1ccccc1)Nc1nnc(CCSCCc2nnc(NC(=O)Cc3ccccc3)s2)s1 [BPTES, reference compound] | 35.3 ± 0.67 µM | 
O=C(Cc1cccc(OC(F)(F)F)c1)Nc1ccc(CCCCc2nnc(NC(=O)Cc3ccccn3)s2)nn1 [CB-839, reference compound] |  | 13.1 ± 0.57 µM
